Data taken from patent US6737383B1, “Herbicidal oxadiazolidines” (priority 1999, dated 2004).

Columns and labels:
[1] = tested on: rape; experiment: Test B pre/postemergence rape; assay type: in vivo, Brassica napus
Method in brief: (§1)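 Test chemicals in a non-phytotoxic solvent mixture with surfactant were sprayed preemergence onto planted seeds and postemergence onto plants 2 to 18 cm tall (1- to 4-leaf stage). After twelve to sixteen days in a greenhouse, injury was visually rated against untreated controls from 0 (no effect) to 10 (complete control).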

[2] = tested on: smallflower flatsedge; experiment: Test B flood test smallflower flatsedge; assay type: in vivo, Cyperus difformis
Method in brief: (§2)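 Read-out is a visual response score from 0 (no effect) to 10 (complete control), assigned by comparison with untreated controls. Treatment was applied at the 2-leaf stage, and plants stayed in the greenhouse for twelve to sixteen days before scoring.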

[3] = tested on: duck salad; experiment: Test B flood test duck salad; assay type: in vivo, Heteranthera limosa
Method in brief: as §2

[4] = tested on: crabgrass; experiment: Test B pre/postemergence crabgrass; assay type: in vivo, Digitaria sanguinalis
Method in brief: as §1

[5] = tested on: bedstraw; experiment: Test B pre/postemergence bedstraw; assay type: in vivo, Galium aparine
Method in brief: as §1

[6] = tested on: cocklebur; experiment: Test B pre/postemergence cocklebur; assay type: in vivo, Xanthium strumarium
Method in brief: as §1

[7] = tested on: soybean; experiment: Test B pre/postemergence soybean; assay type: in vivo, Glycine max
Method in brief: as §1

[8] = tested on: sugar beet; experiment: Test B pre/postemergence sugar beet; assay type: in vivo, Beta vulgaris
Method in brief: as §1

[9] = tested on: surinam grass; experiment: Test B pre/postemergence surinam grass; assay type: in vivo, Brachiaria decumbens
Method in brief: as §1

[10] = tested on: wheat; experiment: Test B pre/postemergence wheat; assay type: in vivo, Triticum aestivum
Method in brief: as §1

[11] = tested on: rice; experiment: Test B flood test rice; assay type: in vivo, Oryza sativa
Method in brief: as §2

[12] = tested on: blackgrass; experiment: Test B pre/postemergence blackgrass; assay type: in vivo, Alopecurus myosuroides
Method in brief: as §1

[13] = tested on: bamyardgrass; experiment: Test B flood test barnyardgrass; assay type: in vivo, Echinochloa crus-galli
Method in brief: as §2

[14] = tested on: wild oat; experiment: Test B pre/postemergence wild oat; assay type: in vivo, Avena fatua
Method in brief: as §1

[15] = tested on: purple nutsedge; experiment: Test B pre/postemergence purple nutsedge; assay type: in vivo, Cyperus rotundus
Method in brief: as §1

[16] = tested on: corn; experiment: Test B pre/postemergence corn; assay type: in vivo, Zea mays
Method in brief: as §1

[17] = tested on: velvetleaf; experiment: Test B pre/postemergence velvetleaf; assay type: in vivo, Abutilon theophrasti
Method in brief: as §1

[18] = Postemergence, Rate 31 g/ha, visual rating, scale 0 to 10 (0 no effect, 10 complete control)
[19] = Preemergence, Rate 62 g/ha, scale of 0 to 10 where 0 is no effect and 10 is complete control
[20] = Preemergence, Rate 250 g/ha, scale of 0 to 10 where 0 is no effect and 10 is complete control
[21] = Rate 62 g/ha, Postemergence, scale 0 to 10 (0 no effect, 10 complete control)
[22] = Rate 125 g/ha, Postemergence, scale of 0 to 10 where 0 is no effect and 10 is complete control
[23] = Rate 250 g/ha, Postemergence, scale of 0 to 10 where 0 is no effect and 10 is complete control
[24] = Rate 31 g/ha, Pre-emergence section (flood test species), scale 0 to 10
[25] = Rate 62 g/ha, headed Pre-emergence (flood test species), scale 0 to 10 (0 no effect, 10 complete control)
[26] = Rate 125 g/ha, Pre-emergence, flood test species, scale 0 to 10 where 0 is no effect and 10 is complete control
[27] = Rate 250 g/ha, Pre-emergence, flood-test species, scale 0 to 10, 0 is no effect, 10 is complete control
[28] = Preemergence, Rate 31 g/ha, visual rating, scale 0 to 10 (0 no effect, 10 complete control)

## Cc1cccc(C)c1-n1c(=O)on(C(=O)N(c2ccc(Cl)cc2Cl)C2CCC2)c1=O [Compound 318]
[1]; [18]
  Rape plant response rating: 0
[1]; [19]
  Rape plant response rating: 0
[1]; Preemergence, Rate 125 g/ha
  Rape plant response rating (0 to 10 scale): 0
[1]; [20]
  Rape plant response rating: 0
[1]; [21]
  Rape plant response rating: 0
[1]; [22]
  Rape plant response rating: 0
[1]; [23]
  Plant response rating, Rape: 0
[2]; [24]
  S. Flatsedge plant response rating: 0
[2]; [25]
  S. Flatsedge plant response rating: 0
[2]; [26]
  S. Flatsedge plant response rating: 0
[2]; [27]
  S. Flatsedge plant response rating: 0
[3]; [24]
  Ducksalad plant response rating: 0
[3]; [25]
  Ducksalad plant response rating: 0
[3]; [26]
  Ducksalad plant response rating: 0
[3]; [27]
  Ducksalad plant response rating: 0
[4]; [18]
  Crabgrass plant response rating: 0
[4]; [28]
  Crabgrass plant response rating: 0
[4]; [19]
  Crabgrass plant response rating: 0
[4]; Preemergence, Rate 125 g/ha
  Crabgrass plant response rating (0 to 10 scale): 0
[4]; [20]
  Crabgrass plant response rating: 0
[4]; [21]
  Crabgrass plant response rating: 0
[4]; [22]
  Crabgrass plant response rating: 0
[4]; [23]
  Plant response rating, Crabgrass: 0
[5]; [18]
  Bedstraw plant response rating: 0
[5]; Preemergence, Rate 125 g/ha
  Bedstraw plant response rating (0 to 10 scale): 0
[5]; [20]
  Bedstraw plant response rating: 0
[5]; [21]
  Bedstraw plant response rating: 0
[5]; [22]
  Bedstraw plant response rating: 0
[5]; [23]
  Plant response rating, Bedstraw: 0
[6]; [18]
  Cocklebur plant response rating: 0
[6]; [28]
  Cocklebur plant response rating: 0
[6]; [19]
  Cocklebur plant response rating: 0
[6]; Preemergence, Rate 125 g/ha
  Cocklebur plant response rating (0 to 10 scale): 0
[6]; [20]
  Cocklebur plant response rating: 0
[6]; [21]
  Cocklebur plant response rating: 0
[6]; [22]
  Cocklebur plant response rating: 0
[6]; [23]
  Plant response rating, Cocklebur: 5
[7]; [18]
  Soybean plant response rating: 0
[7]; [19]
  Soybean plant response rating: 0
[7]; Preemergence, Rate 125 g/ha
  Soybean plant response rating (0 to 10 scale): 0
[7]; [20]
  Soybean plant response rating: 0
[7]; [21]
  Soybean plant response rating: 0
[7]; [22]
  Soybean plant response rating: 0
[7]; [23]
  Plant response rating, Soybean: 1
[8]; [18]
  Sugarbeets plant response rating: 0
[8]; [19]
  Sugarbeets plant response rating: 0
[8]; Preemergence, Rate 125 g/ha
  Sugarbeets plant response rating (0 to 10 scale): 0
[8]; [20]
  Sugarbeets plant response rating: 0
[8]; [21]
  Sugarbeets plant response rating: 0
[8]; [22]
  Sugarbeets plant response rating: 0
[8]; [23]
  Plant response rating, Sugarbeets: 0
[9]; [18]
  B. signalgrass plant response rating: 0
[9]; [28]
  B. signalgrass plant response rating: 0
[9]; [19]
  B. signalgrass plant response rating: 0
[9]; Preemergence, Rate 125 g/ha
  B. signalgrass plant response rating (0 to 10 scale, 0 is no effect, 10 is complete control): 0
[9]; [20]
  B. signalgrass plant response rating: 0
[9]; [21]
  B. signalgrass plant response rating: 0
[9]; [22]
  B. signalgrass plant response rating: 0
[9]; [23]
  Plant response rating, B. signalgrass: 0
[10]; [18]
  Wheat plant response rating: 0
[10]; [19]
  Wheat plant response rating: 0
[10]; Preemergence, Rate 125 g/ha
  Wheat plant response rating (0 to 10 scale): 0
[10]; [20]
  Wheat plant response rating: 0
[10]; [21]
  Wheat plant response rating: 0
[10]; [22]
  Wheat plant response rating: 0
[10]; [23]
  Plant response rating, Wheat: 0
[11]; [24]
  Rice plant response rating: 0
[11]; [25]
  Rice plant response rating: 0
[11]; [26]
  Rice plant response rating: 0
[11]; [27]
  Rice plant response rating: 0
[12]; [18]
  Blackgrass plant response rating: 0
[12]; [28]
  Blackgrass plant response rating: 0
[12]; [19]
  Blackgrass plant response rating: 0
[12]; Preemergence, Rate 125 g/ha
  Blackgrass plant response rating (0 to 10 scale): 0
[12]; [20]
  Blackgrass plant response rating: 0
[12]; [21]
  Blackgrass plant response rating: 0
[12]; [22]
  Blackgrass plant response rating: 0
[12]; [23]
  Plant response rating, Blackgrass: 0
[13]; [24]
  Barnyardgrass plant response rating: 0
[13]; [25]
  Barnyardgrass plant response rating: 0
[13]; [26]
  Barnyardgrass plant response rating: 0
[13]; [27]
  Barnyardgrass plant response rating: 0
[14]; [18]
  Wild oats plant response rating: 0
[14]; [19]
  Wild oats plant response rating: 0
[14]; Preemergence, Rate 125 g/ha
  Wild oats plant response rating (0 to 10 scale): 0
[14]; [20]
  Wild oats plant response rating: 0
[14]; [21]
  Wild oats plant response rating: 0
[14]; [22]
  Wild oats plant response rating: 0
[14]; [23]
  Plant response rating, Wild oats: 0
[15]; [18]
  Nutsedge plant response rating: 0
[15]; [19]
  Nutsedge plant response rating: 0
[15]; Preemergence, Rate 125 g/ha
  Nutsedge plant response rating (0 to 10 scale): 0
[15]; [21]
  Nutsedge plant response rating: 0
[15]; [22]
  Nutsedge plant response rating: 0
[15]; [23]
  Plant response rating, Nutsedge: 0
[16]; [18]
  Corn plant response rating: 0
[16]; [28]
  Corn plant response rating: 0
[16]; [19]
  Corn plant response rating: 0
[16]; Preemergence, Rate 125 g/ha
  Corn plant response rating (0 to 10 scale): 0
[16]; [20]
  Corn plant response rating: 0
[16]; [21]
  Corn plant response rating: 0
[16]; [22]
  Corn plant response rating: 0
[16]; [23]
  Plant response rating, Corn: 0
[17]; [18]
  Velvetleaf plant response rating: 0
[17]; [19]
  Velvetleaf plant response rating: 0
[17]; Preemergence, Rate 125 g/ha
  Velvetleaf plant response rating (0 to 10 scale): 0
[17]; [20]
  Velvetleaf plant response rating: 0
[17]; [21]
  Velvetleaf plant response rating: 0
[17]; [22]
  Velvetleaf plant response rating: 0
[17]; [23]
  Plant response rating, Velvetleaf: 0
